Key:
NPDA cells = assay: Volume of the lysosomal compartment in NPDA cells; assay type: cell-based, Human
Source text: BMP binds ASM with high affinity and stimulates its ability to hydrolyze sphingomyelin to ceramide and phosphorylcholine. […] In order to test whether ASM is responsible for the lysosome stabilizing effect we treated the cells with desipramine, a well characterized pharmacological ASM inhibitor. […] It should be noted that akin to rHsp70, also rASM localized to the lysosomes.
Primary antibodies used included mouse monoclonal antibodies against Hsp70 (2H9; kindly provided by Boris Margulis, Russian Academy of Sciences, St. Petersburg, Russia), glyceraldehyde-3-phosphate dehydrogenase (GAPDH; Biogenesis), BMP (6C4), lysosomal integral membrane protein-1 (H5C6; developed by J. Thomas August and James E. K. Hildreth and obtained from the Developmental Studies Hybridoma Bank developed under the auspices of the NICHD and maintained by The University of Iowa, Department of Biological Sciences, Iowa City, USA). Proteins separated by 10% SDS-PAGE and transferred to a nitrocellulose membrane were detected by using indicated primary antibodies, appropriate peroxidase-conjugated secondary antibodies from Dako, ECL Western blotting reagents (Amersham), and Luminescent Image Reader (LAS-1000Plus, Fujifilm). For immunocytochemistry Alexa […] or Alexa Fluor®-488-conjugated secondary antibodies were used. […] Fluorescence images were taken using a Zeiss Axiovert 100M laser scanning microscope. […]

[1] = Liposome 90° light scattering, LUVs with negatively charged lipids; assay type: binding; details: neutral pH; irrespective of charge density (−1 to −2)
Source text: Thus, we investigated the interaction of Hsp70 with palmitoyl-oleoyl-phosphatidylcholine (POPC) large unilamellar vesicles (LUVs) containing various membrane-associated anionic lipids, i.e. palmitoyl-oleoyl-phosphatidylserine (POPS; primarily in plasma membrane), cardiolipin (primarily mitochondrial) and BMP (primarily in late endosomes/lysosomes). Taking into account the increasingly acidic milieu of the endo-lysosomal compartment upon maturation to lysosomes, we compared the protein-lipid interactions in neutral (pH 7.4) and acidic (pH 6.0) conditions. […] As reported earlier for POPS, all negatively charged lipids enhanced the binding of rHsp70 to the liposomes at neutral pH approximately 4-fold irrespective of the charge density on the liposome surface (ranging from −1 to −2).
The tryptophan fluorescence spectra (RFI) and liposome 90° light scattering (RSI) were analyzed in a HEPES buffer (20 mM HEPES, 0.1 mM EDTA, pH 7.4 or 6.0 as indicated) employing LUVs consisting of indicated lipids essentially as described in the art. For the RFI, LUVs were added in 10 μM aliquots and spectra recorded after a 20 min stabilization period. For the RSI, recombinant proteins were added in 0.12 nmol aliquots.

NPC−/− mice [2] = assay: NPC1 in vivo pilot study: tissue cholesterol (Amplex Red Cholesterol Assay)
Procedure: (§1) Eight treated (rHSP70) NPC^−/− versus eight control (PBS only) NPC^−/− controls. Mice were treated IP three times per week with either 10 mg/kg of rHSP70 or vehicle alone (PBS) from 3 weeks of age. Three control and three treated mice were sacrificed at 7 or 9 weeks old (i.e. after 4 or 6 weeks of treatment, respectively). Organs were perfused (PBS), weighed and frozen for biochemical and immunohistochemical analysis.
Organs were homogenised without any added buffer and frozen as 10 ul aliquots. Fresh aliquots were reconstituted to 100 ul with PBS prior to biochemical analysis. Protein determination for each aliquot was performed by BCA protein assay. Cholesterol assays were performed using the Amplex Red Cholesterol Assay from Invitrogen^i. Sphingosine was isolated by sphingoid base extraction and analysed by HPLC^i. GSLs were extracted and analysed by fluorescent HPLC^i. All results were standardised for protein content.

U2OS osteosarcoma cells = assay: Endocytic uptake of Alexa Fluor-488-labelled BSA (BSA*); assay type: cell-based, Human; details: 20 μg/mL BSA* for 24 h with 3000 nM rHsp70 vs BSA* alone
Procedure: FIG. 4: Hsp70 increases endocytic uptake of other molecules. Panel A: immortalized mouse embryonic fibroblasts (iMEF), either wildtype (WT) or transgenic for Hsp70 (TG) where incubated with 20 μg/mL Alexa Fluor-488-labelled BSA (BSA*) for 24 h. Endocytic uptake was verified by fluorescence microscopy (not shown). Cells where then harvested and analyzed for uptake of BSA*. […] Panel B: U2OS osteosarcoma cells where incubated with 20 μg/mL BSA* for 24 h either with 3000 nM rHsp70 or without as indicated. Endocytic uptake was verified by fluorescence microscopy (not shown). Cells where then harvested and analyzed for uptake of BSA*.

[3] = tested on: primary fibroblasts from Niemann-Pick Disease type C1 patient; assay: Lysosomal cross-sectional area, laser confocal microscopy, NPC1 fibroblasts; assay type: cell-based, human; details: Alexa Fluor 488 labelled, added for 48 h; GM17918
Procedure: (§2) FIG. 7: Test of rhHSP70 in non-sphingolipidosis. rhHSP70 labelled with Alexa Fluor 488 (for visualization of uptake) was added for 48 h to primary fibroblasts from Niemann-Pick Disease type C1 patient (Coriell Cell Repository ID: GM17918). Read-out: lysosomal cross-sectional area (Primary cellular pathology), performed by laser confocal microscopy.

NPC−/− mice [4] = assay: NPC1 in vivo pilot study: rearing analysis
Procedure: as §1
Rearing analysis was performed only at 9 and 10 weeks of age. Briefly, animals are allowed to acclimatise in an open field box. After 5′, counts are made of the activity of the mice including the number of times the animal rears in the centre of the box without support, or at the edges of the box using the walls for support.

NPC−/− mice [5] = assay: NPC1 in vivo pilot study: organ weights; details: 10 mg/kg IP three times per week; sacrificed at 7 or 9 weeks old
Procedure: as §1

[6] = tested on: primary fibroblasts from Mucopolysaccharidosis type IVA patient; assay: Lysosomal cross-sectional area, laser confocal microscopy, MPS IVA fibroblasts; assay type: cell-based, human; details: Alexa Fluor 488 labelled, added for 48 h; GM00958
Procedure: as §2, with “9:” for “7:”, “Mucopolysaccharidosis” for “Niemann-Pick Disease”, “IVA (aka (Morbus) Morquio type IVA)” for “C1”, “GM00958).” for “GM17918).”

[7] = tested on: primary fibroblasts from Mucopolysaccharidosis type IIIA patients; assay: Volume of Acidic Compartment (VAC) by FACS, MPS IIIA fibroblasts; assay type: cell-based, human; details: added for 48 h, MPSIIIA GM00879
Procedure: FIG. 10: Test of rhHSP70 in non-sphingolipidosis. rhHSP70 was added for 48 h to primary fibroblasts from Sandhoff Disease and Mucopolysaccharidosis type IIIA (aka Sanfilippo type IIIA) patients (Coriell Cell Repository ID: Sandhoff: GM11098, MPSIIIA: GM00879). Ctrl=Normal Control fibroblasts. Read-out: Volume of Acidic Compartment (VAC) (Primary cellular pathology), performed by FACS.

Substance: rHsp70: recombinant (human) heat shock protein 70; in some tests labelled with Alexa Fluor 488
- volume of the enlarged lysosomal compartment in NPDA cells (NPDA cells): normalize the volume
- enhancement of binding to liposomes by negatively charged lipids [1]: approximately 4 fold
- cholesterol in peripheral tissue (NPC−/− mice [2]; 7 week time point, compared to control): significant decreases
- brain cholesterol (NPC−/− mice [2]; 7 week time point, done in triplicate): decrease, although the decrease only occurred in one repeat of the experiment
- cholesterol (NPC−/− mice [2]; 9 week time point): no difference
- uptake of BSA* (U2OS osteosarcoma cells): significantly higher uptake of BSA*
- lysosomal cross-sectional area (primary cellular pathology) [3]: effectively reverts the lysosomal primary pathology
- rearing (NPC−/− mice [4]; after 6 treatment weeks): no difference
- successfully completed vs failed rearing events (NPC−/− mice [4]; at 9 weeks, n=5 treated, n=4 control): only control mice failed to complete rearings
- organ weights (NPC−/− mice [5]): No differences
- lysosomal cross-sectional area (primary cellular pathology) [6]: effectively reverts the lysosomal primary pathology
- Volume of Acidic Compartment (VAC) [7]: effectively reverts the lysosomal primary pathology

— patent US10532085B2, “Methods for increasing intracellular activity of Hsp70” (Orphazyme A/S, priority 2010, dated 2020)
